Assay results from US20220274947A1, “NOVEL HETEROARYL-TRIAZOLE COMPOUNDS AS PESTICIDES” (Bayer Aktiengesellschaft, priority 2019, published 2022).

Key:
Type in all cases: in vivo
Ctenocephalides felis [1] = experiment: Ctenocephalides felis oral test (CTECFE Oral); conditions: 48 h, read-out: activity (mortality)
Procedure, shortened: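 Percent mortality was recorded 2 days after roughly 20 adult Ctenocephalides felis fed on treated cattle blood. The blood was warmed to 37 °C beneath a parafilm membrane, with the fleas kept at room temperature. Compound was dissolved in DMSO and diluted into the blood to test concentration.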

Rhipicephalus microplus [2] = experiment: Rhipicephalus (Boophilus) microplus in-vitro contact test, larval cattle tick, strain Parkhurst (BOOPMI Cont); conditions: application rate 5 μg/cm^2 (=500 g/ha), tick larvae, after 48 hours, read-out: activity (efficacy: 100% means all larvae are dead or moribund)
Procedure, shortened: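 After 48 h at 27° C. and 85% humidity, percent dead or moribund larvae was scored from negative geotactic behaviour. Larvae (20-50, Parkhurst strain, synthetic pyrethroid-resistant) were exposed in tubes coated with compound from acetone, 900 ppm corresponding to 5 μg/cm^2.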

Nezara viridula = Nezara viridula spray test; conditions: in Hordeum vulgare, 96 h, barley plants, larvae, after 4 days; for mortality at 100 g/ha: application rate 100 g/ha
Procedure, shortened: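 Mortality was read at day 4 (0% = no kill, 100% = total kill) after spraying larva-infested barley plants. Test solutions were made from an acetone/DMF concentrate diluted with water holding 1000 ppm alkylarylpolyglycol ether emulsifier.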

Myzus persicae [3] = experiment: Myzus persicae spray test; conditions: in Brassica rapa, foliar, 120 h; for mortality at 100 g/ha: read-out: activity (mortality), application rate 100 g/ha, spray, Chinese cabbage leaf disks, after 5 days
Protocol: Myzus persicae—Spray Test Solvent: 78.0 parts by weight acetone • 1.5 parts by weight dimethylformamide Emulsifier: alkylarylpolyglycol ether To produce a suitable preparation of active compound, 1 part by weight of active compound is mixed with the stated amount of solvents and is diluted with water, containing an emulsifier concentration of 1000 ppm, to the desired concentration. Further test concentrations are prepared by dilution with emulsifier containing water.
Chinese cabbage (Brassica pekinensis) leaf disks infected with all instars of the green peach aphid (Myzus persicae), are sprayed with a preparation of the active ingredient of the desired concentration.
After 5 days mortality in % is determined. 100% means all aphids have been killed and 0% means none of the aphids have been killed.

Ctenocephalides felis [4] = experiment: Ctenocephalides felis in-vitro contact test, adult cat flea (CTECFE Cont); conditions: application rate 5 μg/cm^2 (=500 g/ha), adult cat fleas, after 48 hours, read-out: activity (efficacy: 100% means all fleas are dead or moribund)
Procedure, shortened: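 Efficacy, as percent of fleas dead or moribund, was scored 48 h after adults (5-10 per tube) were placed in glass tubes whose walls carried dried compound at 5 μg/cm^2 (900 ppm solution). Moribund meant failing to climb away from a 45-50° C. hot plate within 5 min.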

Diabrotica balteata = Diabrotica balteata spray test; conditions: 168 h, wheat seeds, larvae, after 7 days, read-out: activity (efficacy: 100% means all seedlings have grown up like in the untreated, uninfected control); for pest or weed control at 32 µg/disc, 100 g/ha: application rate 100 g/ha (=32 μg/well); for pest or weed control at 160 µg/disc, 500 g/ha: application rate 500 g/ha (=160 μg/well)
Procedure, shortened: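 Efficacy (%) was scored 7 days after spraying, with 100% meaning growth like the untreated, uninfected control and 0% meaning no seedling grew. Spray solutions of compound in acetone/DMF with emulsifier-containing water went onto 1-day-germinated wheat seeds, and each unit was then infested with 10-20 banded cucumber beetle larvae.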

Rhipicephalus microplus [5] = experiment: Rhipicephalus (Boophilus) microplus injection test (BOOPMI Inj); conditions: 168 h, injection into adult engorged female ticks, egg deposition after 7 days, read-out: activity (efficacy: 100% means all eggs are infertile); for pest or weed control at 0.004 mg: application rate 4 μg/tick; for pest or weed control at 0.02 mg: application rate 20 μg/tick
Procedure, shortened: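 Compound in DMSO, 1 μL, injected abdominally into five adult engorged females, which were then held in a climate chamber. Read-out is egg fertility, scored from deposition at 7 days, with unclear eggs followed to hatching (~42 days); 0% means all eggs fertile, 100% all infertile.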

Myzus persicae [6] = experiment: Myzus persicae oral test; conditions: 120 h, read-out: activity (mortality)
Procedure, shortened: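 Percent mortality was recorded at day 5, where 0% means no aphids killed. Compound prepared from an acetone concentrate diluted in water and combined with IPL41 medium containing sugar was offered to mixed-stage green peach aphids, which sucked it through a parafilm seal.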

Rhipicephalus sanguineus = Rhipicephalus sanguineus in-vitro contact test, adult brown dog ticks (RHIPSA Cont); conditions: 48 h, after 48 hours, read-out: activity (efficacy: 100% means all ticks are dead or moribund); for pest or weed control at 1 µg/cm2, 100 g/ha: application rate 1 μg/cm^2 (=100 g/ha); for pest or weed control at 5 µg/cm2, 500 g/ha: application rate 5 μg/cm^2 (=500 g/ha)
Procedure, shortened: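 Compound in acetone (9 mg/mL stock, diluted to test concentration) is coated onto inner walls of glass tubes by rotation for 2 h at 30 rpm. Efficacy is read after 48 h: ticks are tapped down and held on a 45-50° C plate for at most 5 min, and immotile or uncoordinated ones that fail to climb away count as dead or moribund.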

Spodoptera frugiperda = Spodoptera frugiperda spray test; conditions: in Zea mays, 168 h, read-out: activity (mortality)
Procedure, shortened: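 Percent kill of fall armyworm caterpillars was assessed 7 days after infesting dried, treated maize leaf sections. Treatment was a spray of compound in acetone/dimethylformamide, diluted with water containing emulsifier at 1000 ppm.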

[7] = system: Anopheles funestus strain FUMOZ-R; experiment: Anopheles funestus test (ANPHFU surface treatment & contact assay); conditions: exposure 30 minutes, 24 hours after contact, read-out: efficacy (mortality); for mortality at 20 mg/m2: surface concentration 20 mg/m^2, glazed tile
Protocol: Anopheles funestus Test (ANPHFU Surface Treatment & Contact Assay) Solvent: Aceton+2000 ppm rapeseed oil methyl ester (RME)
In order to produce a sufficient, active ingredient containing solution it is necessary to solve the test compound in the solvent-mix (acetone at 2 mg/ml/RME 2000 ppm). This solution is pipetted onto a glazed tile and after evaporation of the acetone, adult mosquitoes of the species Anopheles funestus strain FUMOZ-R (Hunt et al., Med. Vet. Entomol. 2005 September; 19(3): 271-275) are placed onto the dried surface. The exposure time is 30 minutes. Mortality in percent (%) is determined 24 hours after contact of the insects to the treated surface. 100% mortality means that all tested insects are dead, whereas 0% means that no insect died.

[8] = system: Musca domestica strain WHO—N; experiment: Musca domestica test (MUSCDO surface treatment & contact assay); conditions: surface concentration 20 mg/m^2, glazed tile, exposure 30 minutes, 24 hours after contact, read-out: efficacy (mortality)
Procedure, shortened: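 Compound dissolved in acetone (2 mg/ml) with 2000 ppm rapeseed oil methyl ester and pipetted onto glazed tile; after acetone evaporation, adult flies exposed to dried surface for 30 minutes. Mortality (%) scored 24 hours after contact.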

[9] = system: Aedes aegypti strain MONHEIM; experiment: Aedes aegypti test (AEDSAE surface treatment & contact assay); conditions: surface concentration 20 mg/m^2, glazed tile, exposure 30 minutes, 24 hours after contact, read-out: efficacy (mortality)
Procedure, shortened: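 Compound dissolved in acetone (2 mg/ml) with 2000 ppm rapeseed oil methyl ester, pipetted onto glazed tile and dried. Adult mosquitoes exposed on the surface for 30 min; percent mortality scored 24 h after contact.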

## Cc1nc([C@H](C)NC(=O)c2cc(OC(F)F)cc(C(F)F)c2)n(-c2ccc(C#N)cn2)n1 [II-113]
Ctenocephalides felis [1]
  mortality at 100 ppm: 100%
Rhipicephalus microplus [2]
  pest or weed control at 5 µg/cm2: 100%
Nezara viridula
  mortality at 100 g/ha: 100%
Myzus persicae [3]
  mortality at 100 g/ha: 90%
Ctenocephalides felis [4]
  pest or weed control at 5 µg/cm2: 100%
Diabrotica balteata
  pest or weed control at 32 µg/disc, 100 g/ha: 100%
Rhipicephalus microplus [5]
  pest or weed control at 0.004 mg: 100%
Myzus persicae [6]
  mortality at 0.8 ppm: 100%
  mortality at 4 ppm: 100%
Rhipicephalus sanguineus
  pest or weed control at 1 µg/cm2, 100 g/ha: 80%
  pest or weed control at 5 µg/cm2, 500 g/ha: 100%
Spodoptera frugiperda
  mortality at 100 g/ha: 100%

## C[C@H](NC(=O)c1ccc(Cl)c(C(F)(F)F)c1)c1ncnn1-c1ccc(C#N)cn1 [II-10]
Ctenocephalides felis [1]
  mortality at 100 ppm: 100%
Rhipicephalus microplus [2]
  pest or weed control at 5 µg/cm2: 100%
[7]; surface concentration 4 mg/m^2, glazed tile
  mortality at 4 mg/m2: 80 to 100%
[7]
  mortality at 20 mg/m2: 80 to 100%
Diabrotica balteata
  pest or weed control at 32 µg/disc, 100 g/ha: 100%
  pest or weed control at 160 µg/disc, 500 g/ha: 100%
Rhipicephalus microplus [5]
  pest or weed control at 0.004 mg: 100%
  pest or weed control at 0.02 mg: 100%
Rhipicephalus sanguineus
  pest or weed control at 1 µg/cm2, 100 g/ha: 80%
  pest or weed control at 5 µg/cm2, 500 g/ha: 100%
Spodoptera frugiperda
  mortality at 100 g/ha: 100%
  mortality at 500 g/ha: 100%

## CC(C)CN(C)C(=O)c1ccc(-n2ncnc2[C@H](C)NC(=O)c2cc(Cl)cc(C(F)(F)F)c2)nc1 [II-71]
Rhipicephalus microplus [2]
  pest or weed control at 5 µg/cm2: 100%
Nezara viridula; application rate 500 g/ha
  mortality at 500 g/ha: 100%
Myzus persicae [3]
  mortality at 100 g/ha: 90%
Myzus persicae [3]; read-out: activity (mortality), application rate 500 g/ha, spray, Chinese cabbage leaf disks, after 5 days
  mortality at 500 g/ha: 90%
Ctenocephalides felis [4]
  pest or weed control at 5 µg/cm2: 100%
Diabrotica balteata
  pest or weed control at 32 µg/disc, 100 g/ha: 100%
  pest or weed control at 160 µg/disc, 500 g/ha: 100%
Rhipicephalus microplus [5]
  pest or weed control at 0.004 mg: 100%
  pest or weed control at 0.02 mg: 100%
Myzus persicae [6]
  mortality at 4 ppm: 90%
Rhipicephalus sanguineus
  pest or weed control at 5 µg/cm2, 500 g/ha: 100%
Spodoptera frugiperda
  mortality at 500 g/ha: 100%

## Cc1nc([C@H](C)NC(=O)c2cc(C(F)(F)F)cc(C(F)(F)F)c2)n(-c2ccc(C(=O)N(C)CC(C)C)cn2)n1 [II-94]
Ctenocephalides felis [1]
  mortality at 100 ppm: 90%
Rhipicephalus microplus [2]
  pest or weed control at 5 µg/cm2: 100%
Nezara viridula
  mortality at 100 g/ha: 100%
Myzus persicae [3]
  mortality at 100 g/ha: 90%
Ctenocephalides felis [4]
  pest or weed control at 5 µg/cm2: 100%
Diabrotica balteata
  pest or weed control at 32 µg/disc, 100 g/ha: 100%
Rhipicephalus microplus [5]
  pest or weed control at 0.004 mg: 100%
Myzus persicae [6]
  mortality at 4 ppm: 100%
Rhipicephalus sanguineus
  pest or weed control at 1 µg/cm2, 100 g/ha: 100%
  pest or weed control at 5 µg/cm2, 500 g/ha: 100%

## C[C@H](NC(=O)c1cc(Cl)cc(I)c1)c1ncnn1-c1ccc(C#N)cn1 [II-23]
Rhipicephalus microplus [2]
  pest or weed control at 5 µg/cm2: 100%
[7]
  mortality at 20 mg/m2: 80 to 100%
[8]
  mortality at 20 mg/m2: 80 to 100%
Ctenocephalides felis [4]
  pest or weed control at 5 µg/cm2: 80%
Diabrotica balteata
  pest or weed control at 32 µg/disc, 100 g/ha: 100%
  pest or weed control at 160 µg/disc, 500 g/ha: 100%
Rhipicephalus microplus [5]
  pest or weed control at 0.004 mg: 100%
  pest or weed control at 0.02 mg: 100%
[9]
  mortality at 20 mg/m2: 80 to 100%
Spodoptera frugiperda
  mortality at 100 g/ha: 100%
  mortality at 500 g/ha: 100%
